These results are taken from publication PMC6066518, “Homology Modeling Informs Ligand Discovery for the Glutamine Transporter ASCT2” (Frontiers in Chemistry, 2018).

By IC50 is commonly meant the concentration that inhibits the measured activity by half. High values mean weaker potency in that assay, low ones greater potency in that assay.

The target of the assay is T1, ASCT2 (Rattus norvegicus, UniProt D3ZJ25).
T1 construct: gene Slc1a5
T1 sequence (D3ZJ25 1-555): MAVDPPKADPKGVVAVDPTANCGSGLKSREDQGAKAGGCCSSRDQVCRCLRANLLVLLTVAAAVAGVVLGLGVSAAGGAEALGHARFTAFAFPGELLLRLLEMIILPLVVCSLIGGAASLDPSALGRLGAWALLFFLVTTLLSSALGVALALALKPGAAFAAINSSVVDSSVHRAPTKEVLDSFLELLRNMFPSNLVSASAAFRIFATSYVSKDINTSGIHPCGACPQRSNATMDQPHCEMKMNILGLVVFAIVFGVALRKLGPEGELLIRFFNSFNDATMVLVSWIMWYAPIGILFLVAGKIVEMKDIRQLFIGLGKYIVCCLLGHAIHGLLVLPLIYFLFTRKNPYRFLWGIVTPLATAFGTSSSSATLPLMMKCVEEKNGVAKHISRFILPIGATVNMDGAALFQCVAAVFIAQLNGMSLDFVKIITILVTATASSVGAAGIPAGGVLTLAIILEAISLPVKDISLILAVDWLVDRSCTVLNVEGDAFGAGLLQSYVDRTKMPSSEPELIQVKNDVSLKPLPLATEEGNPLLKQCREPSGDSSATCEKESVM
Kind of assay: whole-cell current recording, inhibition of anion leak current in HEK293 cells expressing rat ASCT2. Format: cell-based.

As for `Cc1ccccc1C1(CNC(=O)NC(C(N)=O)c2ccccc2)CC1` (stereo not shown) [compound 10], half-maximal inhibition (IC50) was put at 67 ± 17 µM.
